Experimental data reported in paper PMC6751662, “Pharmacological and functional similarities of the human neuropeptide Y system in C. elegans challenges phylogenetic views on the FLP/NPR system” (Cell Communication and Signaling : CCS, 2019).

What was measured:
Assay type in all cases: cell-based, C. elegans
[1] = molecular target: T1, NPR-11 (Caenorhabditis elegans, UniProt Q18179); assay: IP accumulation assay, endogenous Gαq + mock, NPR-11; conditions: 1 h, HBSS + 20 mM LiCl, HEK293 receptor + empty vector, HTRF IP-One, mean of >=3 independent experiments
T1 construct: expressed in transfected cells; host or cells: HEK293, transient
T1 sequence (Q18179 1-402): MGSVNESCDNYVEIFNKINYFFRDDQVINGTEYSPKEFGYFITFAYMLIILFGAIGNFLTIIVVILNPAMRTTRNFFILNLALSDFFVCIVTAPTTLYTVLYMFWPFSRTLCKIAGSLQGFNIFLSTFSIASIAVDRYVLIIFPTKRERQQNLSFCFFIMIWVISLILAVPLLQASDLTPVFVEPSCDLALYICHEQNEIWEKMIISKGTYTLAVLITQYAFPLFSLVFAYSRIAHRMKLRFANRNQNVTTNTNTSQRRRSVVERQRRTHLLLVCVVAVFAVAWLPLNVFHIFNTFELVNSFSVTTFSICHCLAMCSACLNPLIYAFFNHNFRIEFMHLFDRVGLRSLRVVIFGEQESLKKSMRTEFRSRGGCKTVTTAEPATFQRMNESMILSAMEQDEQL
Protocol: (§1) For measuring IP accumulation, HEK293 cells grown to 70–80% confluency in 6-well plates were transiently co-transfected using Metafectene Pro (2.5 μl/μg DNA; Biontex) with plasmids containing receptor and/or mock (empty pcDNA3.1) (for endogenous Gq-coupling) using 4 μg total DNA in a ratio of 3:1 following the manufacturer’s instructions. For testing Gα16- and GαΔ6qi4myr-coupling, plasmids encoding the corresponding Gα protein were co-transfected instead of mock. Gα16 is naturally promiscuous and stimulates the phospholipase C (PLC) pathway leading to IP production, while the exchange of the C-terminal four amino acids of Gαq for the corresponding residues of Gαi1 in the chimeric GαΔ6qi4myr confers the ability to couple to Gi/o protein-preferring receptors but still stimulate PLC, thus specifically redirecting downstream cellular signaling. 16 h post transfection, the cells were seeded into white 384-well plates at a density of 20,000 cells/well. Media was removed 24 h later and the cells were incubated with the indicated concentration of peptides for 1 h in HBSS + 20 mM LiCl. IP accumulation was measured with the HTRF-based IP-One Gq kit (Cisbio) on a microplate reader (Tecan Spark).
(§2) For in vitro activation, data is presented as mean ± SEM of at least three independent experiments conducted in technical triplicate. […]

[2] = test system: NPR-6; assay: cAMP reporter gene assay, Gs (no forskolin), NPR-6; conditions: no forskolin, 4 h, transiently transfected HEK293, CRE-luciferase reporter, mean of >=3 independent experiments
Protocol: (§3) Activation of Gs and Gi/o was assessed with a cAMP reporter gene assay. HEK293 cells grown to 70–80% confluency in 6-well plates were transiently co-transfected with vectors encoding the receptor and the cAMP reporter gene plasmid pGL4.29 [luc2P/CRE/Hygro] (Promega; 4 μg total, 1:1 ratio) using Metafectene Pro (3 μl/μg DNA; Biontex) following the manufacturer’s instructions. 16 h post transfection, the cells were seeded into white 384-well plates at a density of 20,000 cells/well. On the next day, the medium was removed and the cells were stimulated with 20 μl of peptide solution (or forskolin as positive control) in serum-free DMEM for 4 h. For measuring Gi/o activity, the peptide solutions additionally contained 1 μM forskolin to elevate cellular cAMP levels. After incubation, the luciferase substrate OneGlo in lysis buffer (Promega) was added and the luminescence was measured in a microplate reader Tecan Spark (Tecan). Data were analyzed with GraphPad Prism 5.03 and are shown as fold of basal or fold of forskolin in case of Gαi/o activity.
(§4) For in vitro activation, data is presented as mean ± SEM of at least three independent experiments conducted in technical triplicate. […] For the C. elegans NPRs, we considered the strongest response elicited by any of the peptides downstream of a particular receptor as the receptor’s maximal signal. This may or may not be the biological maximum that can be reached by the ‘true’ endogenous agonist. For the human receptors, the response to the established endogenous agonist reflected the maximal signal.

[3] = molecular target: T2, NPR-5b (Caenorhabditis elegans, UniProt Q6F3C9); assay: IP accumulation assay, endogenous Gαq + mock, NPR-5b; conditions: 1 h, HBSS + 20 mM LiCl, HEK293 receptor + empty vector, HTRF IP-One, mean of >=3 independent experiments
T2 sequence (Q6F3C9 1-433): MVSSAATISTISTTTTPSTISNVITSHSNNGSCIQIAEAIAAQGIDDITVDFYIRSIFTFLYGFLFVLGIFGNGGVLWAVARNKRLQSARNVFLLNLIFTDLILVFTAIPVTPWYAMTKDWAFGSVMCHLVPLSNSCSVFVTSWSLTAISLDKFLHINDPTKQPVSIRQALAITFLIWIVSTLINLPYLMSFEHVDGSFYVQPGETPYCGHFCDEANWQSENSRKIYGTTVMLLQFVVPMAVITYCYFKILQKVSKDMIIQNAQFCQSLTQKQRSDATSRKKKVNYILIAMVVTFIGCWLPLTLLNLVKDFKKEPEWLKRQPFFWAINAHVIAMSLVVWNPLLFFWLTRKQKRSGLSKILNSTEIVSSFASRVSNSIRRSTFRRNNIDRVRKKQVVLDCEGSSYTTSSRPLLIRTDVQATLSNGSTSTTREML
Protocol: as §1, §2

[4] = molecular target: T3, NPR-4b (Caenorhabditis elegans, UniProt A0A078BTK0); assay: IP accumulation assay, co-transfected Gα16, NPR-4b; conditions: 1 h, HBSS + 20 mM LiCl, HEK293 receptor + Gα16, HTRF IP-One, mean of >=3 independent experiments
T3 sequence (A0A078BTK0 1-376): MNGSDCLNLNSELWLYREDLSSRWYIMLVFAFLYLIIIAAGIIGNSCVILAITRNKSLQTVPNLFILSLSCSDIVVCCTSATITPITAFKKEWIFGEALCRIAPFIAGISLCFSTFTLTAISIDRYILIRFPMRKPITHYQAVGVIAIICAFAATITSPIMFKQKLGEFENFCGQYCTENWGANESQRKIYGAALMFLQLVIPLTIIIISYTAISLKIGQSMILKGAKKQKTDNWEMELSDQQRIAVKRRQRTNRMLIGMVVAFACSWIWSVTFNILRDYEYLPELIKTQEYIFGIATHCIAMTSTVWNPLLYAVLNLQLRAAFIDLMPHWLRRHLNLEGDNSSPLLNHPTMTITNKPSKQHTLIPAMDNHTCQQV
Protocol: as §1, §2

[5] = molecular target: T2, NPR-5b; assay: cAMP reporter gene assay, Gs (no forskolin), NPR-5b; conditions: no forskolin, 4 h, transiently transfected HEK293, CRE-luciferase reporter, mean of >=3 independent experiments
Protocol: as §3, §4

[6] = test system: NPR-6; assay: IP accumulation assay, endogenous Gαq + mock, NPR-6; conditions: 1 h, HBSS + 20 mM LiCl, HEK293 receptor + empty vector, HTRF IP-One, mean of >=3 independent experiments
Protocol: as §1, §2

[7] = molecular target: T1, NPR-11; assay: IP accumulation assay, co-transfected Gα16, NPR-11; conditions: 1 h, HBSS + 20 mM LiCl, HEK293 receptor + Gα16, HTRF IP-One, mean of >=3 independent experiments
Protocol: as §1, §2

[8] = 0.1 nM peptide (so in the source)

APKPKFIRF-NH2 [FLP-5-1, C. elegans FMRFamide-like peptide, C-terminally amidated, synthesized by SPPS]
IP assay endog. Gαq + mock, NPR-11 [1, 8]: 1.05 x-fold of basal | IP assay endog. Gαq + mock, NPR-11 ([1]; 10 µM peptide): 1.09 x-fold of basal | cAMP assay Gs, NPR-6 ([2]; 0.1 µM peptide): 0.68 x-fold of basal | cAMP assay Gs, NPR-6 ([2]; 10 µM peptide): 0.57 x-fold of basal | IP assay endog. Gαq + mock, NPR-5b [3, 8]: 0.93 x-fold of basal | IP assay endog. Gαq + mock, NPR-5b ([3]; 10 µM peptide): 1.11 x-fold of basal | IP assay endog. Gαq + Gα16, NPR-4b [4, 8]: 1.04 x-fold of basal | IP assay endog. Gαq + Gα16, NPR-4b ([4]; 10 µM peptide): 0.84 x-fold of basal | cAMP assay Gs, NPR-5b ([5]; 0.1 µM peptide): 0.68 x-fold of basal | cAMP assay Gs, NPR-5b ([5]; 10 µM peptide): 0.68 x-fold of basal | IP assay endog. Gαq + mock, NPR-6 [6, 8]: 0.92 x-fold of basal | IP assay endog. Gαq + mock, NPR-6 ([6]; 10 µM peptide): 0.95 x-fold of basal | IP assay endog. Gαq + Gα16, NPR-11 [7, 8]: 1.04 x-fold of basal | IP assay endog. Gαq + Gα16, NPR-11 ([7]; 10 µM peptide): 0.84 x-fold of basal
